Experimental data reported in PubChem BioAssay (NCI).
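How tested: cells in 96-well plates exposed to compound for 48 hours at five concentrations. GI50 marks 50% less growth. Definition used: TGI = concentration required for complete inhibition of growth.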

Columns and labels:
Experiment in all cases: DTP human tumour cell line panel, 48 h
[1] = system: NCI-H23 lung
[2] = system: HCT-15 colon
[3] = system: RPMI-8226 leukemia
[4] = system: U251 CNS
[5] = system: UACC-257 melanoma
[6] = system: HOP-62 NSCLC
[7] = system: MOLT-4 leukemia
[8] = system: NCI-H226 lung
[9] = system: SK-MEL-28 melanoma
[10] = system: A498 renal
[11] = system: NCI/ADR-RES ovarian
[12] = system: UO-31 renal
[13] = system: MDA-MB-435
[14] = system: DU-145 prostate
[15] = system: 786-0 renal
[16] = system: SK-MEL-2 melanoma
[17] = system: HT29 colon
[18] = system: OVCAR-8 ovarian
[19] = system: HOP-92 NSCLC
[20] = system: KM12 colon
[21] = system: NCI-H522 lung
[22] = system: HS 578T breast
[23] = system: T-47D breast
[24] = system: OVCAR-5 ovarian
[25] = system: SR leukemia
[26] = system: OVCAR-4 ovarian
[27] = system: HCT-116 colon
[28] = system: MDA-MB-231 breast
[29] = system: SK-OV-3 ovarian
[30] = system: NCI-H460 lung
[31] = system: RXF 393 renal
[32] = system: BT-549 breast
[33] = system: MCF7 breast
[34] = system: IGROV1 ovarian
[35] = system: SW-620 colon
[36] = system: HCC-2998 colon
[37] = system: OVCAR-3 ovarian
[38] = system: SNB-75 CNS
[39] = system: K-562 leukemia
[40] = system: SF-268 CNS
[41] = system: UACC-62 melanoma
[42] = system: SK-MEL-5 melanoma
[43] = system: TK-10 renal
[44] = system: COLO 205 colon
[45] = system: MALME-3M melanoma
[46] = system: SF-295 CNS
[47] = system: M14 melanoma
[48] = system: CCRF-CEM leukemia
[49] = system: ACHN renal
[50] = system: CAKI-1 renal
[51] = system: SN12C renal
[52] = system: SNB-19 CNS
[53] = system: SF-539 CNS
[54] = system: HL-60(TB) leukemia
[55] = system: A549 NSCLC
[56] = system: PC-3 prostate
[57] = system: LOX IMVI melanoma
[58] = system: EKVX NSCLC

Q: What does the source list for COc1cc[nH]c1/C=C1\C(=O)Nc2ccc([N+](=O)[O-])c(N3CC[C@@H](O)C3)c21?
A: GI50 [1]: 484 nM; TGI [1]: 1890 nM; GI50 [2]: 123 nM; TGI [2]: 2920 nM; GI50 [3]: 296 nM; TGI [3]: 1140 nM; GI50 [4]: 172 nM; TGI [4]: 2070 nM; GI50 [5]: 474 nM; TGI [5]: 1640 nM; GI50 [6]: 181 nM; TGI [6]: 1880 nM; GI50 [7]: 142 nM; TGI [7]: 2400 nM; GI50 [8]: 169 nM; TGI [8]: 1690 nM; GI50 [9]: 277 nM; TGI [9]: 1200 nM; GI50 [10]: 182 nM; TGI [10]: 815 nM; GI50 [11]: 530 nM; TGI [11]: 5830 nM; GI50 [12]: 267 nM; TGI [12]: 3440 nM; GI50 [13]: 271 nM; TGI [13]: 907 nM; GI50 [14]: 177 nM; TGI [14]: 2830 nM; GI50 [15]: 186 nM; TGI [15]: 3560 nM; GI50 [16]: 229 nM; TGI [16]: 688 nM; GI50 [17]: 209 nM; TGI [17]: 1560 nM; GI50 [18]: 278 nM; TGI [18]: 3460 nM; GI50 [19]: 544 nM; TGI [19]: 2470 nM; GI50 [20]: 101 nM; TGI [20]: 2220 nM; GI50 [21]: 393 nM; TGI [21]: 1230 nM; GI50 [22]: 353 nM; TGI [22]: 6330 nM; GI50 [23]: 541 nM; TGI [23]: 3800 nM; GI50 [24]: 258 nM; TGI [24]: 3970 nM; GI50 [25]: 53.6 nM; TGI [25]: 185 nM; GI50 [26]: 488 nM; TGI [26]: 2140 nM; GI50 [27]: 75.9 nM; TGI [27]: 25000 nM; GI50 [28]: 479 nM; TGI [28]: 2310 nM; GI50 [29]: 631 nM; TGI [29]: 8160 nM; GI50 [30]: 119 nM; TGI [30]: 2920 nM; GI50 [31]: 56.6 nM; TGI [31]: 146 nM; GI50 [32]: 328 nM; TGI [32]: 1590 nM; GI50 [33]: 121 nM; TGI [33]: 2850 nM; GI50 [34]: 467 nM; TGI [34]: 4270 nM; GI50 [35]: 205 nM; TGI [35]: 9490 nM; GI50 [36]: 544 nM; TGI [36]: 2000 nM; GI50 [37]: 131 nM; TGI [37]: 1590 nM; GI50 [38]: 93.1 nM; TGI [38]: 989 nM; GI50 [39]: 577 nM; TGI [39]: 7570 nM; GI50 [40]: 255 nM; TGI [40]: 1290 nM; GI50 [41]: 338 nM; TGI [41]: 762 nM; GI50 [42]: 181 nM; TGI [42]: 847 nM; GI50 [43]: 512 nM; TGI [43]: 1610 nM; GI50 [44]: 135 nM; TGI [44]: 688 nM; GI50 [45]: 921 nM; TGI [45]: 1970 nM; GI50 [46]: 128 nM; TGI [46]: 3400 nM; GI50 [47]: 399 nM; TGI [47]: 1130 nM; GI50 [48]: 85.5 nM; TGI [48]: 1510 nM; GI50 [49]: 80.4 nM; TGI [49]: 2000 nM; GI50 [50]: 369 nM; TGI [50]: 1630 nM; GI50 [51]: 211 nM; TGI [51]: 4000 nM; GI50 [52]: 495 nM; TGI [52]: 5680 nM; GI50 [53]: 102 nM; TGI [53]: 386 nM; GI50 [54]: 83.1 nM; TGI [54]: 213 nM; GI50 [55]: 167 nM; TGI [55]: 2180 nM; GI50 [56]: 235 nM; TGI [56]: 2150 nM; GI50 [57]: 92.3 nM; TGI [57]: 1410 nM

Q: What does the source list for N#CC1C(=O)NC(=O)C(C#N)C1c1ccc(Cl)c(Cl)c1 (stereo unspecified)?
A: TGI [1]: 49200 nM; TGI [2]: 46100 nM; TGI [4]: 51500 nM; TGI [5]: 86700 nM; TGI [6]: 43400 nM; TGI [7]: 62000 nM; TGI [9]: > 100000 nM; TGI [11]: 83100 nM; TGI [12]: 33200 nM; TGI [13]: 49000 nM; TGI [14]: > 100000 nM; TGI [15]: 41700 nM; TGI [16]: > 100000 nM; TGI [17]: 33000 nM; TGI [18]: > 100000 nM; TGI [58]: > 100000 nM; TGI [19]: > 100000 nM; TGI [20]: > 100000 nM; TGI [21]: 38000 nM; TGI [22]: 65600 nM; TGI [23]: > 100000 nM; TGI [24]: 68600 nM; TGI [25]: 41600 nM; TGI [26]: > 100000 nM; TGI [27]: 29700 nM; TGI [28]: > 100000 nM; TGI [29]: > 100000 nM; TGI [30]: > 100000 nM; TGI [31]: 50500 nM; TGI [32]: > 100000 nM; TGI [33]: > 100000 nM; TGI [34]: 47300 nM; TGI [35]: 36800 nM; TGI [37]: 67000 nM; TGI [38]: 74200 nM; TGI [39]: 85800 nM; TGI [40]: > 100000 nM; TGI [42]: 48300 nM; TGI [43]: 98400 nM; TGI [44]: > 100000 nM; TGI [45]: > 100000 nM; TGI [46]: > 100000 nM; TGI [47]: 56000 nM; TGI [48]: 31900 nM; TGI [49]: 50900 nM; TGI [50]: 71600 nM; TGI [52]: > 100000 nM; TGI [53]: 42600 nM; TGI [54]: > 100000 nM; TGI [55]: > 100000 nM; TGI [56]: > 100000 nM; TGI [57]: 34400 nM
